Experimental findings from patent US12023319B2, “Carboxylic acid aromatic amides” (priority 2016, dated 2024) are described below.

This test addresses T1, human Bradykinin B1 receptor (Homo sapiens, UniProt P46663).
T1 construct: host or cells: CHO-K1
T1 sequence (P46663 1-353): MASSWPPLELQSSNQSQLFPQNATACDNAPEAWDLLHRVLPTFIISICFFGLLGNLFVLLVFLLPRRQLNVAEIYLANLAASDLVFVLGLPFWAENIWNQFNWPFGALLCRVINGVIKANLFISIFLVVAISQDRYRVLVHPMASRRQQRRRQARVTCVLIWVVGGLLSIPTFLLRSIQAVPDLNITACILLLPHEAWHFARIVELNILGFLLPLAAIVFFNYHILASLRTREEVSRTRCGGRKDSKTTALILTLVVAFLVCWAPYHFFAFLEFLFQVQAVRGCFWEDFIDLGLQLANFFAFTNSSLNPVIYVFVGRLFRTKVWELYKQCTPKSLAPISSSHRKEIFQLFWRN
The test is described as follows: Calcium flux assay (FLIPR), CHO-K1 cells expressing human Bradykinin B1 receptor, absence of 0.1% BSA (hB1 free IC50). The settings on record: absence of 0.1% BSA in assay buffer. The test is classed as cell-based. How it is done:
The potency to inhibit the Bradykinin B1 receptor was determined for the Compound Examples of this invention in a cell-based fluorescent calcium-mobilisation assay. The assay measures the ability of Compound Examples to inhibit Bradykinin B1 receptor agonist-induced increase of intracellular free Ca^2+ in the cell line expressing Bradykinin B1 receptor. Specifically, calcium indicator-loaded cells are pre-incubated in the absence or presence of different concentrations of Compound Examples followed by the stimulation with a selective Bradykinin B1 receptor agonist peptide. The change of the intracellular Ca^2+ concentration is monitored with a fluorescent plate reader FLIPR^TETRA® (Molecular Devices).
Calcium Flux Assays (FLIPR) with Cells Expressing Human Bradykinin B1 Receptor (hB1)
CHO-K1 cell line expressing human Bradykinin B1 receptor is purchased from Euroscreen (Gosselies, Belgium, with reference name hB1-D1). The cells are grown in Nutrient Mixture Ham's F12 (Sigma) containing 10% Foetal bovine serum (Sigma) and 400 μg/mL G418 (Sigma), 5 μg/mL puromycin (Sigma).
The effect of BSA on the potency of endothelin receptor antagonists have been described in the prior art (Wu-Wong, J. R. et al. (1997), JPET 281: 791-798). The teaching can be applied in analogy to testing the potency of Bradykinin B1 receptor antagonist in the FLIPR assays.
For the calcium flux assay, 80% confluent cells are detached from the culture vessels with Versene (Gibco), and seeded into 384-well plates (Cell binding Surface; Corning, NY; #3683) at a density of 15,000 cells per well. Cells are seeded in a volume of 50 μL in medium without antibiotics and incubated overnight in a humidified atmosphere with 5% CO2 at 37° C. […] The calcium indicator loaded cells are incubated at 37° C. for 2 hrs. Extracellular dye is then removed and each well is filled with 45 μL of assay buffer. Cell plates are kept in dark until used. Compound examples are assayed at 8 concentrations in triplicate. Serial 10-fold dilutions in 100% DMSO are made at a 100-times higher concentration than the final concentration, and then diluted 1:10 in assay buffer. 5 μL of each diluted compound is added to the well of cell plates (yielding final concentration with 1% DMSO), and incubated for 30 min at 28° C. before the addition of Bradykinin B1 receptor agonist on the FLIPR instrument.
The addition of agonist 20 μl per well to the assay plate is carried out on the FLIPR instrument while continuously monitoring Ca2+-dependent fluorescence at 538 nm. A peptide antagonist Lys-(Des-Arg-Leu)-Bradykinin (Bachem, Brackley) at 20 µM is used to determine the full inhibition as control.
Peak fluorescence is used to determine the response to agonist obtained at each concentration of Compound Examples by the following equation: % Response=100*(RFU(compound)−RFU(control))/(RFU(DMSO)−RFU(control))
RFU means relative fluorescence units.
Control means full inhibition by the peptide antagonist Lys-(Des-Arg-Leu)-Bradykinin at 20 µM.
The response values are plotted against the logarithm of the compound concentrations. The Compound Examples are tested in triplicates per plate and mean values are plotted in Excel XLfit to determine IC50 values, percentage of maximal inhibition and the Hill slopes.

On to `O=C(O)c1cc(NC(=O)C2(c3cc(F)ccc3F)CC2)ccc1-c1cnn(C2CCC2)c1` [Example 55, 2-(1-Cyclobutyl-1H-pyrazol-4-yl)-5-({[1-(2,5-difluorophenyl)cyclopropyl]carbonyl}amino)benzoic acid], for which the IC50 amounted to 280 nM.

Turning to `O=C(O)c1cc(NC(=O)C2(c3ccc(F)c(Cl)c3)CC2)ccc1-c1cnn(C2CCC2)c1` [Example 56, 5-({[1-(3-Chloro-4-fluorophenyl)cyclopropyl]carbonyl}amino)-2-(1-cyclobutyl-1H-pyrazol-4-yl)benzoic acid], the IC50 turned out to be 85 nM.

As for `O=C(O)c1cc(NC(=O)C2(c3cc(F)cc(Cl)c3)CC2)ccc1-c1cnn(C2CCC2)c1` [Example 57, 5-({[1-(3-Chloro-5-fluorophenyl)cyclopropyl]carbonyl}amino)-2-(1-cyclobutyl-1H-pyrazol-4-yl)benzoic acid], the IC50 is 840 nM.

As for `O=C(O)c1cc(NC(=O)C2(c3ccc(Cl)cn3)CC2)ccc1-c1cnn(C2CCC2)c1` [Example 58, 5-({[1-(5-Chloropyridin-2-yl)cyclopropyl]carbonyl}amino)-2-(1-cyclobutyl-1H-pyrazol-4-yl)benzoic acid], the IC50 worked out at 360 nM.

As to `O=C(O)c1cc(NC(=O)C2(c3c(F)cccc3F)CC2)ccc1-c1cnn(C2CCC2)c1` [Example 59, 2-(1-Cyclobutyl-1H-pyrazol-4-yl)-5-({[1-(2,6-difluorophenyl)cyclopropyl]carbonyl}amino)benzoic acid], the IC50 is 1100 nM.

Turning to `O=C(O)c1cc(NC(=O)C2(c3cc(C(F)(F)F)ccc3F)CC2)ccc1-c1cnn(C2CCC2)c1` [Example 60, 2-(1-Cyclobutyl-1H-pyrazol-4-yl)-5-[({1-[2-fluoro-5-(trifluoromethyl)phenyl]cyclopropyl}carbonyl)amino]benzoic acid], the IC50 was found to be 62 nM.

On to `O=C(O)c1cc(NC(=O)C2(c3ccc(F)cc3Cl)CC2)ccc1-c1cnn(C2CCC2)c1` [Example 61, 5-({[1-(2-Chloro-4-fluorophenyl)cyclopropyl]carbonyl}amino)-2-(1-cyclobutyl-1H-pyrazol-4-yl)benzoic acid], for which the IC50 is 200 nM.

In the case of `O=C(O)c1cc(NC(=O)C2(c3c(F)cccc3Cl)CC2)ccc1-c1cnn(C2CCC2)c1` [Example 62, 5-({[1-(2-Chloro-6-fluorophenyl)cyclopropyl]carbonyl}amino)-2-(1-cyclobutyl-1H-pyrazol-4-yl)benzoic acid], the IC50 was determined as 89 nM.

Turning to `COc1ccc(F)c(C2(C(=O)Nc3ccc(-c4cnn(C5CCC5)c4)c(C(=O)O)c3)CC2)c1` [Example 63, 2-(1-Cyclobutyl-1H-pyrazol-4-yl)-5-({[1-(2-fluoro-5-methoxyphenyl)cyclopropyl]carbonyl}amino)benzoic acid], the IC50 was found to be 3000 nM.

On to `CC1(C)CC1(C(=O)Nc1ccc(-c2cnn(C3CCC3)c2)c(C(=O)O)c1)c1ccccc1F` (centres unmarked) [Example 64, 2-(1-Cyclobutyl-1H-pyrazol-4-yl)-5-({[1-(2-fluorophenyl)-2,2-dimethylcyclopropyl]carbonyl}amino)benzoic acid], for which the IC50 is 1300 nM.

As to `O=C(O)c1cc(NC(=O)C2(c3ccc(OC(F)(F)F)cc3F)CC2)ccc1-n1cc(C(F)(F)F)cn1` [Example 65, 5-[({1-[2-Fluoro-4-(trifluoromethoxy)phenyl]cyclopropyl}carbonyl)amino]-2-[4-(trifluoromethyl)-1H-pyrazol-1-yl]benzoic acid], the IC50 stood at 2600 nM.

As to `CC(C)(C)c1ccn(-c2ccc(NC(=O)C3(c4ccc(OC(F)(F)F)cc4F)CC3)cc2C(=O)O)n1` [Example 66, 2-(3-tert-Butyl-1H-pyrazol-1-yl)-5-[({1-[2-fluoro-4-(trifluoromethoxy)phenyl]cyclopropyl}carbonyl)amino]benzoic acid], the IC50 was 2100 nM.

With `CCn1cc(-c2ccc(NC(=O)C3(c4ccc(C(F)(F)F)cc4F)CC3)cc2C(=O)O)cn1` [Example 68, 2-(1-Ethyl-1H-pyrazol-4-yl)-5-[({1-[2-fluoro-4-(trifluoromethyl)phenyl]cyclopropyl}carbonyl)amino]benzoic acid], the IC50 stood at 36 nM.

Take `CCn1cc(-c2ccc(NC(=O)C3(c4ccc(OC(F)(F)F)cc4F)CC3)cc2C(=O)O)cn1` [Example 69, 2-(1-Ethyl-1H-pyrazol-4-yl)-5-[({1-[2-fluoro-4-(trifluoromethoxy)phenyl]cyclopropyl}carbonyl)amino]benzoic acid]: the IC50 worked out at 28 nM.

In the case of `CC(C)(C)n1cc(-c2ccc(NC(=O)C3(c4ccc(C(F)(F)F)cc4F)CC3)cc2C(=O)O)cn1` [Example 72, 2-(1-tert-Butyl-1H-pyrazol-4-yl)-5-[({1-[2-fluoro-4-(trifluoromethyl)phenyl]cyclopropyl}carbonyl)amino]benzoic acid], the IC50 was 28 nM.

For the compound `CC(C)(C)Cn1cc(-c2ccc(NC(=O)C3(c4ccc(C(F)(F)F)cc4F)CC3)cc2C(=O)O)cn1` [Example 76, 2-[1-(2,2-Dimethylpropyl)-1H-pyrazol-4-yl]-5-[({1-[2-fluoro-4-(trifluoromethyl)phenyl]cyclopropyl}carbonyl)amino]benzoic acid], the IC50 is 11 nM.

As to `O=C(O)c1cc(NC(=O)C2(c3ccc(OC(F)(F)F)cc3)CC2)ccc1-c1cnn(C2CCC2)c1` [Example 78, 2-(1-Cyclobutyl-1H-pyrazol-4-yl)-5-[({1-[4-(trifluoromethoxy)phenyl]cyclopropyl}carbonyl)amino]benzoic acid], the IC50 amounted to 300 nM.

Turning to `O=C(O)c1cc(NC(=O)C2(c3ccc(C(F)(F)F)c(F)c3)CC2)ccc1-c1cnn(C2CCC2)c1` [Example 79, 2-(1-Cyclobutyl-1H-pyrazol-4-yl)-5-[({1-[3-fluoro-4-(trifluoromethyl)phenyl]cyclopropyl}carbonyl)amino]benzoic acid], the IC50 came to 60 nM.

In the case of `Cc1ccc(C2(C(=O)Nc3ccc(-c4cnn(C5CCC5)c4)c(C(=O)O)c3)CC2)c(F)c1` [Example 80, 2-(1-Cyclobutyl-1H-pyrazol-4-yl)-5-({[1-(2-fluoro-4-methylphenyl)cyclopropyl]carbonyl}amino)benzoic acid], the IC50 worked out at 120 nM.

Turning to `Cc1ccc(C2(C(=O)Nc3ccc(-c4cnn(C5CCC5)c4)c(C(=O)O)c3)CC2)cc1F` [Example 81, 2-(1-Cyclobutyl-1H-pyrazol-4-yl)-5-({[1-(3-fluoro-4-methylphenyl)cyclopropyl]carbonyl}amino)benzoic acid], the IC50 came to 680 nM.

Turning to `O=C(O)c1cc(NC(=O)C2(c3ccc(F)cn3)CC2)ccc1-c1cnn(C2CCC2)c1` [Example 82, 2-(1-Cyclobutyl-1H-pyrazol-4-yl)-5-({[1-(5-fluoropyridin-2-yl)cyclopropyl]carbonyl}amino)benzoic acid], the IC50 was 2500 nM.

With `O=C(O)c1cc(NC(=O)C2(c3ccc(C(F)(F)F)cc3F)CC2)ccc1-c1cnn([C@@H]2CCOC2)c1` [Example 83, 5-[({1-[2-Fluoro-4-(trifluoromethyl)phenyl]cyclopropyl}carbonyl)amino]-2-{1-[(3R)-tetrahydrofuran-3-yl]-1H-pyrazol-4-yl}benzoic acid], the IC50 stood at 560 nM.

For `O=C(O)c1cc(NC(=O)C2(c3ccc(C(F)(F)F)cc3F)CC2)ccc1-c1cnn([C@H]2CCOC2)c1` [Example 84, 5-[({1-[2-Fluoro-4-(trifluoromethyl)phenyl]cyclopropyl}carbonyl)amino]-2-{1-[(3S)-tetrahydrofuran-3-yl]-1H-pyrazol-4-yl}benzoic acid], the IC50 is 570 nM.

By IC50 is commonly meant the midpoint of a concentration-inhibition curve.
